Source: US10709724B2, “Methods of treating mitochondrial dysfunction” (Ecole Polytechnique Federale de Lausanne (EPFL), priority 2011, dated 2020)

How the values were obtained:
C2C12 myotubes [1] = assay: NR uptake in C2C12 myotubes; assay type: in vitro ADME
C57Bl/6J mice = assay: NAD+ content in mouse tissues after one week of supplemented chow; assay type: in vivo; conditions: 400 mg/kg/day in chow
Description: Animal Experiments. […] In other animal experiments, 8 weeks-old male C57Bl/6J mice were purchased from Charles River and powder chow (D12450B) and high fat (D12492) diets were from Research Diets Inc (New Brunswick, N.J., USA). 80 ml of water per kg of powder CD were used to make food pellets. 40 ml of water per kg of powder HFD were used to make food pellets. […] Mice were housed separately, had ad libitum access to water and food and were kept under a 12 h dark-light cycle. Mice were fed with homemade pellets from 10 weeks of age. […] All animal experiments were carried out according to local national and EU ethical guidelines. To monitor body weight, mice were weighed and the food consumption was measured each week on the same day. In case of PJ34 treatment, mice received each 12 h (at 7:00 and 19:00) 10 mg/kg PJ34 by intraperitoneal injection for 5 continuous days. In all studies animals were killed (at 14:00) either after CO2 inhalation or cervical dislocation after 6 h of fasting (starting at 8:00), and tissues were collected and processed as specified below. […] Plasma insulin and was determined in heparinized plasma samples using specific ELISA kits (Mercodia). Blood samples were collected in heparinized tubes and plasma was isolated after centrifugation. Plasma parameters were measured using a Cobas c111 (Roche Diagnostics). […] The respiratory quotient was the ratio of CO2 production over O2 consumption. During actimetry, beamline crossings were summarized each 15 minutes.
NAD^+ NAM Determination. NAD^+ levels in cultured cells were determined using a commercial kit (Enzychrom™, BioAssays Systems, CA). […] 70 L of ice-cold 7% perchloric acid was then added and the sample was vortexed and sonicated three times, then centrifuged. Clear supernatant was removed and neutralized by additions of 3 M NaOH and 1 M phosphate buffer (pH=9), then centrifuged. Clear supernatant was injected onto HPLC C-18 column with 20 mM ammonium acetate eluent to separate NAD^+ and NAM from other cellular components, NAD^+ and NAM peaks (260 nm absorbance) were collected. Collections were lyophilized to dryness and subjected to MALDI-TOF analysis. […] Corrections were applied for isotopic abundance.

C2C12 myotubes [2] = assay: Oxygen consumption in cultured C2C12 myotubes; assay type: cell-based
Description: Oxygen Consumption in Cultured Cells. Cellular O2 consumption was measured using a Seahorse bioscience XF24 analyzer with […] biological replicates per condition, in 24 well plates at 37° C., exactly as described (Canto et al., 2009). C2C12 were infected with an adenovirus encoding for FLAG-HA-PGC-1 and either scramble or SIRT1 shRNAs 48 h previous to O2 consumption measurements. Then myotubes were treated with 1 μM PJ34 for 48 h. In order to measure the contribution of fatty acid oxidation to global O2 consumption, total cellular O2 consumption was measured for 6 successive 2 min measurements at 5 min intervals. Then, 50 μl of etomoxir (1 M; Calbiochem, San Diego, Calif., USA) were added and, after […], 6 successive 2 min measurements were performed at 5 min intervals. The remaining O2 consumption was attributed to non-lipid substrates, while the difference with the initial O2 consumption values was considered due to fatty acid oxidation.

C2C12 myotubes [3] = assay: Mitochondrial gene expression, mtDNA and membrane potential in C2C12 myotubes; assay type: cell-based
Description: Cell Culture, Transfection, Adenoviral Infection and Mitochondrial Characterization. HEK293T, MEF and C2C12 cells were cultured in DMEM (4.5 g/l glucose, 10% FCS). PARP-1^+/+ and PARP-1^−/− MEFs were prepared as described in (Menissier-de Murcia et al., 1997). SIRT1 and MEFs were kindly provided by Fred Alt (Chea et al., 2005). SIRT3 MER were established according to standard techniques from conditional SERT3^−/− mice. (Picard, F., Gehin, M., Annicotte, J., Rocchi, S., Champy, M. F., O'Malley, B. W., Chambon, P., and Auwerx, J. (2002). SRC-1 and TIF2 control energy balance between white and brown adipose tissues. Cell 111, 931-941.) Deletion of the SIRT3 gene was induced via infection with adenovirus encoding for the Cre recombinase. HEK293T cells were transfected using JetPei reagent (Polyplus Transfections, Illkirch, France) according to the manufacturer's instructions. C2C12 cells were differentiated in DMEM (4.5 g/L glucose, 2% horse serum) after reaching confluency for 2 days, followed by 2 days of PJ34 treatment (10 μM). PARP-1 shRNA constructs were described in (Shah et al., 2005). Human PARP-1 and siRNAs were obtained from Dharmacon (Thermo Scientific). The adenovirus encoding for FLAG-HA-PGC-1α, control and SIRT1 shRNAs were a kind gift from Pere Puigserver and were used (MOI=100) in C2C12 myotubes as described (Canto et al., 2009). Mitochondrial charge determination was performed as described (Bai et al., 2001) and DNA strand breaks were quantified by TUNEL assays according to the manufacturer's instructions (Millipore).
mRNA and mtDNA Analysis. Total RNA was prepared using TRIzol (Invitrogen) according to the manufacturer's instructions. RNA was treated with DNase, and 2 μg of RNA was used for reverse transcription (RT). cDNA was purified on QIAquick PCR cleanup columns (Qiagen, Valencia, Calif., USA). 50× diluted cDNA was used for RT-quantitative PCR (RT-VCR) VCR) reactions (Bai et al., 2007). The RT-qPCR reactions were performed using the Light-Cycler system (Roche Applied Science) and a qPCR Supermix (Qiagen) with the primers for mice summarized in Table 1 and 4, and with the primers for worms summarized on Table 7. mtDNA quantification was performed as described (Lagouge et al., 2006) with the primers indicated in Table 2 and 5.
Mitochondrial DNA Measurement The assay was performed as described (Lagouge et al., 2006). DNA. was extracted using the standard proteinase K digestion following phenol-chloroform extraction. Mitochondrial and genomic DNA was determined using specific primers in qPCR reactions (primers summarized in Table 2 and 5.) and was expressed as percentage of WT.

Structure (SMILES): NC(=O)c1ccc[n+]([C@@H]2O[C@H](CO)[C@@H](O)[C@H]2O)c1 [NR, nicotinamide riboside]
- Km (C2C12 myotubes [1]): 172 ± 17.6 µM
- Vmax of NR uptake (C2C12 myotubes [1]): 204.2±20.5 pmol/mg of protein/min
- NAD+ levels in liver (C57Bl/6J mice): increased NAD^+ levels in liver
- mitochondrial NAD+ levels in mouse liver (C57Bl/6J mice): mitochondrial NAD^+ levels were enhanced
- muscle NAD+ content (C57Bl/6J mice; quadriceps): significantly enhanced muscle NAD^+ content

Structure (SMILES): CN(C)CC(=O)Nc1ccc2[nH]c(=O)c3ccccc3c2c1 [PJ34]
- O2 consumption rates (C2C12 myotubes [2]; 1 μM PJ34, 48 h): enhanced oxidative metabolism
- O2 consumption with SIRT1 knock-down (C2C12 myotubes [2]; SIRT1 shRNA): largely blunted
- substrate contribution to the increase in O2 consumption (C2C12 myotubes [2]; etomoxir): combination of enhanced oxidation of lipid and non-lipid substrates
- mitochondrial DNA content (C2C12 myotubes [3]; 1 μM, 48 h): higher mitochondrial DNA content
- mitochondrial membrane potential (C2C12 myotubes [3]; 1 μM, 48 h): higher mitochondrial potential
- expression of mitochondrial genes (Ndufa2, Ndufa3, MCAD, PDK4, UCP3) (C2C12 myotubes [3]; 48 hrs): increased expression of several mitochondrial genes
- UCP3 mRNA expression with SIRT1 knock-down (C2C12 myotubes [3]; SIRT1 shRNA): persistent increase in UCP3 mRNA expression
- mitochondrial gene expression with SIRT1 knock-down (C2C12 myotubes [3]; SIRT1 shRNA): largely blunted
